According to patent publication US10406136B2 (priority 2013, dated 2019):

Columns and labels:
[1] = biological target: T1, neuraminidase (EC. 3.2.1.8, C. perfringens, SIGMA, N2876) (Clostridium perfringens, UniProt A0A0H2YQR1); format: biochemical; settings: Lineweaver-Burk and Dixon plots
[2] = biological target: T1, neuraminidase (EC. 3.2.1.8, C. perfringens, SIGMA, N2876); format: biochemical

T1 sequence (A0A0H2YQR1 1-694): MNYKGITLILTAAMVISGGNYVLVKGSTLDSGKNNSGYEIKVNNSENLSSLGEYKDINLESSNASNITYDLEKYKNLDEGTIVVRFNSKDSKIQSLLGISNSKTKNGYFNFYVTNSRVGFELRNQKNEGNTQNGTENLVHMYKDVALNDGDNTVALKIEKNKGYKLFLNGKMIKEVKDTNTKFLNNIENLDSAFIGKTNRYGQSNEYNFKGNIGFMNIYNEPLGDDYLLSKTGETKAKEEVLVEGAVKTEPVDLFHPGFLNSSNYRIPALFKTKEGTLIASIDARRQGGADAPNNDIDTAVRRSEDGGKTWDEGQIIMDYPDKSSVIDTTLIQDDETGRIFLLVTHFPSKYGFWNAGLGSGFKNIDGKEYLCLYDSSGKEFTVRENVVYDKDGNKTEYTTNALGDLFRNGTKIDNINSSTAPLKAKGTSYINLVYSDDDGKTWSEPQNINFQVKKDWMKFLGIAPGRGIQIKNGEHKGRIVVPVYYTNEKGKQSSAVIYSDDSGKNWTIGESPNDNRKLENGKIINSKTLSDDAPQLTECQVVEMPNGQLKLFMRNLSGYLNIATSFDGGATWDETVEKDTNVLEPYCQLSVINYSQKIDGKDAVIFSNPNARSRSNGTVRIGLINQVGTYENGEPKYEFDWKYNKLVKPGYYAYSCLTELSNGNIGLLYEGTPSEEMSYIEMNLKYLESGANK

Row | Structure (SMILES) | Inhibition (type) [1] | IC50 [2] [µM]
1 | COc1cc(C2Oc3cc(O)c(C/C=C(\C)CCC=C(C)C)c(O)c3C(=O)[C@@H]2O)ccc1O (stereo partly shown) [Compound 1, 3′-O-methyldiplacol] | Competitive | 
2 | COc1ccc(C2Oc3cc(O)c(C/C=C(\C)CCC=C(C)C)c(O)c3C(=O)[C@@H]2O)cc1O (stereo partly shown) [Compound 2, 4′-O-methyldiplacol] | Competitive | 
3 | COc1cc(C2CC(=O)c3c(cc(O)c(C/C=C(\C)CCC=C(C)C)c3O)O2)ccc1O (stereo not shown) [Compound 4, 3′-O-methyldiplacone] | Competitive | 
4 | COc1ccc(C2CC(=O)c3c(cc(O)c(C/C=C(\C)CCC=C(C)C)c3O)O2)cc1O (stereo not shown) [Compound 5, 4′-O-methyldiplacone] | Competitive | 12.9 ± 0.4
5 | COc1c(O)cc(C2CC(=O)c3c(cc(O)c(C/C=C(\C)CCC=C(C)C)c3O)O2)cc1O (stereo not shown) [Compound 6, 6-geranyl-3′,5,5′,7-tetrahydroxy-4′-methoxyflavanone] | Competitive | 
6 | CC(C)=CCC/C(C)=C/Cc1c(O)cc2c(c1O)C(=O)CC(c1ccc(O)cc1)O2 (stereo not shown) [Compound 7, mimulone] | Competitive | 
7 | CC(C)=CCC/C(C)=C/Cc1c(O)cc2c(c1O)C(=O)CC(c1ccc(O)c(O)c1)O2 (stereo not shown) [Compound 8, diplacone] | Competitive | 0.11 ± 0.003
8 | COc1cc(C2CC(=O)c3c(cc(O)c(C/C=C(\C)CCC=C(C)C)c3O)O2)cc(OC)c1O (stereo not shown) [Compound 9, 6-geranyl-4′,5,7-trihydroxy-3′,5′-dimethoxyflavanone] | Competitive | 
